pIC50: −log10 of the molar value.
Tests used:
[1] = test system: HCT-116; experiment: Inhibitory concentration was determined for cytotoxicity in HCT116 human colon cancer cell line.; assay type: functional, cell-based
[2] = test system: Nucleic Acid; experiment: In vitro DNA cleaving activity which induce cell filamentation was evaluated by inducement of the SOS response at a dose of 200 ug/ml.; assay type: functional
[3] = test system: Nucleic Acid; experiment: In vitro ability to cleave DNA using supercoiled pM2 DNA with beta-mercaptoethanol at a drug concentration of 2E-5; Greater activity; assay type: functional
[4] = test system: Mus musculus; experiment: In vivo relative median survival time of drug treated and control mice in murine Madison 109 (M109) lung carcinoma cells at 16 mg/kg/inj.; assay type: functional
[5] = test system: Nucleic Acid; experiment: In vitro DNA cleaving activity which induce cell filamentation was evaluated by inducement of the SOS response at a dose of 1000 ug/ml.; assay type: functional
[6] = test system: Nucleic Acid; experiment: In vitro ability to cleave DNA using supercoiled pM2 DNA without beta-mercaptoethanol at a drug concentration of 2E-5; Greater activity; assay type: functional
[7] = test system: Nucleic Acid; experiment: In vitro DNA cleaving activity which induce cell filamentation was evaluated by inducement of the SOS response at a dose of 40 ug/ml.; assay type: functional
[8] = test system: Nucleic Acid; experiment: In vitro ability to cleave DNA using supercoiled pM2 DNA without beta-mercaptoethanol at drug concentrations of 2E-5; Greater activity; assay type: functional
[9] = test system: Mus musculus; experiment: In vivo relative median survival time of drug treated and control mice in murine Madison 109 (M109) lung carcinoma cells at 64 mg/kg/inj.; assay type: functional
[10] = test system: Nucleic Acid; experiment: In vitro ability to cleave DNA using supercoiled pM2 DNA with beta-mercaptoethanol at drug concentrations of 2E-5; Greater activity; assay type: functional
[11] = test system: HCT-116; experiment: Inhibitory concentration was determined for cytotoxicity in HCT116 human colon cancer cell line; assay type: functional, cell-based

| SMILES | pIC50 [1] | Area [2] | DNA cleavage [3] | T/C [4] | Area [5] | DNA cleavage [6] | Area [7] | DNA cleavage [8] | T/C [9] | DNA cleavage [10] | pIC50 [11] |
| --- | --- | --- | --- | --- | --- | --- | --- | --- | --- | --- | --- |
| O=C1C2=CCCC1(O)C#C/C=C\C#C[C@H]2O (stereo partly specified) | 7.00 | 954 mm² | Greater activity | 144% | 1620 mm² | Greater activity | 427 mm² |  |  |  |  |
| O=C1C2=CCCC1(O)C#Cc1ccccc1C#C[C@H]2O (stereo partly specified) | 5.74 | 0 mm² |  |  | 0 mm² |  | 0 mm² | Greater activity | 107% | Greater activity |  |
| O=C1C2=CCCC1(O)C#CC1=C(C#C[C@H]2O)CCC1 (stereo partly specified) |  | 75 mm² |  |  | 162 mm² |  | 0 mm² | Greater activity | 147% | Greater activity | 5.66 |

Source: ChEMBL document CHEMBL1153652, “Synthesis and biological activity of modified enediyne chemotypes” (Bioorg Med Chem Lett, 1994)
